We go through three compounds from article PMC9867442, “Indole Derivatives Bearing Imidazole, Benzothiazole-2-Thione or Benzoxazole-2-Thione Moieties—Synthesis, Structure and Evaluation of Their Cytoprotective, Antioxidant, Antibacterial and Fungicidal Activities” (Molecules, 2023).

Data set [1] relates to Gloeophyllum trabeum (Gt). The data set can be described thus: Antifungal agar-plate method. The settings on record: Gloeophyllum trabeum, read-out: Antifungal activity (inhibition of mycelial growth); for inhibition of growth at 0.0001 %: concentration 0.0001%; for inhibition of growth at 0.001 %: concentration 0.001%; for inhibition of growth at 0.01 %: concentration 0.01%; for inhibition of growth at 0.1 %: concentration 0.1%. Type of data set: cell-based. On the procedure: (§1) Fungal strains: Coriolus versicolor (Cv), Poria placenta (Pp), Coniophora puteana (Cp) and Gloeophyllum trabeum (Gt) were used as a test organism for the experimental determination of the antifungal activity of 1–11. The fungus were obtained from the collection of the Department of Wood Chemical Technology, Faculty of Forestry and Wood Technology, Poznań, University of Life Sciences, Poland. The fungal growth rates were measured in 90 mm-diameter plastic dishes using the agar-plate method, described by Ważny and Thorton. Five concentrations of gramine and its derivatives in the range of 0.1% to 0.00001% were studied. The compound was applied on the agar (2% agar and 5% malt-extract) prepared on the Petri dish and previously autoclaved. The combination of the compound and fungus was repeated three times. Given sample was centrally inoculated with a 5 mm diameter disc taken from the submargin of 5-day-old malt agar plates. The plates were incubated in darkness at 21 ± 2 °C and 70 ± 5% relative air humidity. The growth duration was determined by the total coverage of the reference plate. The radius of the area covered by the fungus compared with the reference agar plate was employed to calculate the effective doses, ED50, of preservative concentrations retarding the fungal growth rate by 50%.

A further data set deals with Coniophora puteana (Cp). The data set can be described thus: Antifungal agar-plate method. Type of data set: cell-based. The settings on record: Coniophora puteana, read-out: Antifungal activity (inhibition of mycelial growth); for inhibition of growth at 0.0001 %: concentration 0.0001%; for inhibition of growth at 0.001 %: concentration 0.001%; for inhibition of growth at 0.01 %: concentration 0.01%; for inhibition of growth at 0.1 %: concentration 0.1%. On the procedure: as §1

The next data set has as its system Poria placenta (Pp). Put plainly: Antifungal agar-plate method. Format: cell-based. The conditions noted are these: read-out: Antifungal activity (inhibition of mycelial growth); for inhibition of growth at 0.0001 %: concentration 0.0001%; for inhibition of growth at 0.001 %: concentration 0.001%; for inhibition of growth at 0.01 %: concentration 0.01%; for inhibition of growth at 0.1 %: concentration 0.1%. On the procedure:
as §1

Another data set deals with Coriolus versicolor (Cv). The data set can be described thus: Antifungal agar-plate method. Format: cell-based. The settings on record: Trametes versicolor, read-out: Antifungal activity (inhibition of mycelial growth); for inhibition of growth at 0.0001 %: concentration 0.0001%; for inhibition of growth at 0.001 %: concentration 0.001%; for inhibition of growth at 0.01 %: concentration 0.01%; for inhibition of growth at 0.1 %: concentration 0.1%. The protocol: as §1

The next data set concerns Escherichia coli. The data set can be described thus: Antibacterial well-diffusion method. Type of data set: cell-based. The conditions noted are these: 0.1 mL of compound in DMSO, 48 h, 37 °C. On the procedure:
(§2) The antimicrobial properties of compounds were determined against selected bacteria: Micrococcus luteus, Bacillus subtilis, Escherichia coli and Pseudomonas fluorescens which came from the collection of Pure Cultures of the Facility of Microbiology of the Department of Soil Science and Microbiology of the Poznan University of Life Sciences. The well-diffusion method was used to evaluate the antimicrobial properties of compounds. 6 mL each of liquidized broth medium was poured into sterile Petri dishes and allowed to solidify. After which, two sterile glass rings with a diameter of 0.5 cm were placed on the surface of each plate. Then 20 mL each of liquid broth medium containing suspensions of the tested bacterial strains at a density of 10^7 cells/cm3, obtained from 48-h cultures on broth […], was introduced. After the medium solidified, the glass rings were removed with a pencil, obtaining two wells on each plate. 0.1 mL of compound dissolved in pure dimethyl sulphoxide was introduced into one well, and 0.1 mL of pure dimethyl sulphoxide was introduced into the other well, which was as a control. Each compound was tested in four replicates. The plates were incubated for 48 h in a thermostat at 27 °C for M. luteus, B. subtilis and P. fluorescens cultures, and the E. coli culture at 37 °C. At the end of the incubation, the diameters of growth inhibition of the tested strains were measured using calipers.

The next data set deals with Pseudomonas fluorescens. Put plainly: Antibacterial well-diffusion method. Format: cell-based. The conditions noted are these: 0.1 mL of compound in DMSO, 48 h, 27 °C. The protocol:
as §2
(In general: In agar diffusion tests the substance spreads into inoculated agar from a disc or well.)

A further data set relates to Bacillus subtilis. The data set can be described thus: Antibacterial well-diffusion method. The conditions noted are these: 0.1 mL of compound in DMSO, 48 h, 27 °C. Format: cell-based. On the procedure: as §2
In the next data set the test system is Micrococcus luteus. Put plainly: Antibacterial well-diffusion method. Type of data set: cell-based. The settings on record: Micrococus luteus, 0.1 mL of compound in DMSO, 48 h, 27 °C. On the procedure: as §2
Data set [2] deals with human red blood cells (RBC). The data set can be described thus: Hemolysis assay under the compounds tested. Format: cell-based. The conditions noted are these: 0.1 mg/mL, 60 min, 37 °C, PBS pH 7.4. On the procedure:
The erythrocytes were washed three times (3000 rpm, 10 min, +4 °C) in 7.4 pH phosphate buffered saline (PBS: 137 mM NaCl, 2.7 mM KCl, 10 mM Na2HPO4, 1.76 mM KH2PO4) supplemented with 10 mM glucose. After washing, RBC were suspended in the PBS buffer at 1.65 × 10^9 cells/mL, stored at +4 °C, and used within 5 h.
The cytotoxic activity of the compounds tested was determined by a standard hemolytic assay according to Mrówczyńska and Hägerstrand [57]. Briefly, RBC (1.65 × 10^8 cells/mL, ~1.5% hematocrit) were incubated in PBS buffer (7.4 pH) supplemented with 10 mM glucose and containing compounds tested (0.1 mg/mL) for 60 min at 37 °C in a shaking water bath. Samples with RBC incubated in PBS without compounds tested were taken as the control. Each sample was repeated three times, and the experiments were repeated 3 times with RBC from different donors. After incubation, the RBC suspensions were centrifuged (3000 rpm, 10 min), and the degree of hemolysis was estimated by measuring the absorbance (Ab) of the supernatant at 540 nm. The results were expressed as a percentage (%) of hemolysis which was determined using the following equation:Hemolysis (%) = (sample Ab/positive control Ab) × 100% were positive control is Ab of supernatant of RBC in ice-cold H2O.

The nature of data set [3]: Ferrous ions (Fe2+) chelating activity (ferrozine). The conditions noted are these: 0.1 mg/mL, 10 min, room temperature. The protocol:
Ferrous ions (Fe^2+) chelating activity was evaluated by inhibition of the formation of Fe^2+-ferrozine complex after incubation of the compounds tested with Fe^2+. The Fe^2+-chelating ability of compounds tested was determined by the absorbance of the ferrous ion-ferrozine complex at 562 nm. In brief, 0.1 mg/mL concentration of the compounds tested in 0.2 mL ethyl alcohol were added to a solution of 0.6 mM FeCl2 (0.05 mL). EDTA (ethylenediaminetetraacetic acid) was used as the standard EDTA chelating agent. The reaction was started by the addition of 5 mM ferrozine (0.05 mL) in ethyl alcohol and shaken vigorously immediately. The samples were stored for 10 min at room temperature (~22 °C). Following incubation, the absorbance (Abs) of the solutions was measured at 562 nm in a spectrophotometer. The percentage of inhibition of ferrozine—Fe^2+ complex formation was calculated using the equation: Fe^2+ chelating effect (%) = [1 − (Abs1/Abs0)] × 100% where Abs0 is the absorbance of the sample without the tested compound and Abs1 is the absorbance in the presence of the compound tested. Each sample was made in triplicate, and three independent experiments were performed.

For the compound `Cc1nccn1Cc1c[nH]c2ccccc12` [Compound 3, 3-((2-methyl-1H-imidazol-1-yl)methyl)-1H-indole], the melting point (in general, the temperature of the solid-liquid transition) was in the range of 173 to 174 °C. In addition, in data set [1], the inhibition of growth (usually the drop in the measured response relative to a control, in per cent) at 0.0001 % came to 15%; the inhibition of growth at 0.001 % came to 19%; the inhibition of growth at 0.01 % stood at 44%; the inhibition of growth at 0.1 % came out at 100%. In addition, in the data set with Coniophora puteana (Cp), the inhibition of growth at 0.0001 % is 0%, the inhibition of growth at 0.001 % came to 0%, the inhibition of growth at 0.01 % was 48% and the inhibition of growth at 0.1 % came out at 100%. In the data set with Poria placenta (Pp), the inhibition of growth at 0.0001 % was determined as 0%, the inhibition of growth at 0.001 % came to 0%, the inhibition of growth at 0.01 % was determined as 48% and the inhibition of growth at 0.1 % is 100%. Besides, in the data set on Coriolus versicolor (Cv), the inhibition of growth at 0.0001 % was 0%, the inhibition of growth at 0.001 % was found to be 1%, the inhibition of growth at 0.01 % came out at 35% and the inhibition of growth at 0.1 % worked out at 100%. Moreover, the “Zone of Growth Inhibition” value in the data set with Escherichia coli amounted to 1 mm. The “Zone of Growth Inhibition” value in the data set on Pseudomonas fluorescens was found to be 16 mm. The “Zone of Growth Inhibition” value in the data set with Bacillus subtilis was 1 mm. Moreover, the “Zone of Growth Inhibition” value in the data set with Micrococcus luteus is listed as 3 mm. Besides, the Hemolytic activity in data set [2] is given as 3.6%.
Consider `c1ccc2c(c1)ncn2Cc1c[nH]c2ccccc12` [Compound 9, 1-((1H-indol-3-yl)methyl)-1H-benzo[d]imidazole], for which the melting point lay within 214 to 216 °C. This compound also displayed a Chelating activity in data set [3] of 4%. Further, in [1], the inhibition of growth at 0.0001 % came to 17%, the inhibition of growth at 0.001 % came to 28%, the inhibition of growth at 0.01 % was 48% and the inhibition of growth at 0.1 % is 100%. In the data set with Coniophora puteana (Cp), the inhibition of growth at 0.0001 % was 0%, the inhibition of growth at 0.001 % came out at 0%, the inhibition of growth at 0.01 % was found to be 40% and the inhibition of growth at 0.1 % came out at 100%. For the same compound, in the data set with Poria placenta (Pp), the inhibition of growth at 0.0001 % worked out at 0%, the inhibition of growth at 0.001 % stood at 23%, the inhibition of growth at 0.01 % stood at 37% and the inhibition of growth at 0.1 % was 100%. For the same compound, in the data set with Coriolus versicolor (Cv), the inhibition of growth at 0.0001 % worked out at 0%, the inhibition of growth at 0.001 % is 6%, the inhibition of growth at 0.01 % came out at 44% and the inhibition of growth at 0.1 % came out at 100%. Also, the “Zone of Growth Inhibition” value in the data set on Escherichia coli is 3 mm. Besides, the “Zone of Growth Inhibition” value in the data set with Pseudomonas fluorescens was 0 mm. Moreover, the “Zone of Growth Inhibition” value with Bacillus subtilis is 2.7 mm. In addition, in the data set on Micrococcus luteus, the “Zone of Growth Inhibition” value is recorded as 4.3 mm. Further, the Hemolytic activity in [2] was 23%.
For `S=c1oc2ccccc2n1Cc1c[nH]c2ccccc12` [Compound 11, 3-((1H-indol-3-yl)methyl)benzo[d]oxazole-2(3H)-thione], the melting point lay within 157 to 159 °C. This compound also gave a Chelating activity in [3] of 29%. Also, in data set [1], the inhibition of growth at 0.0001 % was found to be 17%, the inhibition of growth at 0.001 % stood at 39%, the inhibition of growth at 0.01 % is 47% and the inhibition of growth at 0.1 % was 100%. In the data set with Coniophora puteana (Cp), the inhibition of growth at 0.0001 % was 0%, the inhibition of growth at 0.001 % was 43%, the inhibition of growth at 0.01 % stood at 44% and the inhibition of growth at 0.1 % was found to be 100%. For the same compound, in the data set with Poria placenta (Pp), the inhibition of growth at 0.0001 % was found to be 0%, the inhibition of growth at 0.001 % was 56%, the inhibition of growth at 0.01 % amounted to 64% and the inhibition of growth at 0.1 % turned out to be 100%. In the data set with Coriolus versicolor (Cv), the inhibition of growth at 0.0001 % is 0%, the inhibition of growth at 0.001 % stood at 2%, the inhibition of growth at 0.01 % was determined as 26% and the inhibition of growth at 0.1 % amounted to 100%. Moreover, in the data set on Escherichia coli, the “Zone of Growth Inhibition” value came out at 2.7 mm. In the data set with Pseudomonas fluorescens, the “Zone of Growth Inhibition” value is given as 0 mm. Besides, the “Zone of Growth Inhibition” value in the data set with Bacillus subtilis is recorded as 0 mm. Besides, in the data set with Micrococcus luteus, the “Zone of Growth Inhibition” value amounted to 4 mm.
